Patent publication US20230277484A1, “COMPOSITIONS AND METHODS TO PROMOTE BRAIN HEALTH” (Guardian Biosciences, LLC, priority 2022, published 2023)

Assays:
[1] = mouse, in vivo
Experimental: 1. The purpose of this study is to determine tissue levels of a test article after dosing in mice.
3. Test system • Number of animals: 39 • Species/strain or breed: C57BL/6J • Age/Wt. at Arrival: 7 weeks • Sex: Female
On study day 0 animals were randomized into treatment groups based on body weight. Following enrollment, treatment was initiated and continued as indicated below. Body weights were recorded following enrollment. Sample collection time points are outlined below On study day 1, animals were necropsied as specified in Section 6.6 below.
7.6 Necropsy information • Method of euthanasia: bleed to exsanguinate followed by cervical dislocation. • Time points: N=3 at each time point; 0 (vehicle); 10 min; 30 min; 1, 2, 3 and 4h
Terminal blood samples were collected via cardiac blood draw and processed for plasma (K2 EDTA, 300-400 uL/animal. Plasma samples were stored at −80 C for shipment on dry ice for bioanalysis. From each animal, the entire brain was collected, flash frozen, and stored at −80 C for shipment on dry ice to bioanalysis.
A study was performed to collect plasma for pharmacokinetic monitoring after a single dose of R-(−)-3-hydroxybutyric acid sodium salt (“BHB”) or R-3′-hydroxybutyl (R)-3′-hydroxybutyrate (“BHB ester”) in female C57BL/6 mice. […]

[2] = system: Neurofilament Light (NfL) Chain; assay: Neurofilament light chain in plasma after TBI; assay type: in vivo, C57BL/6J female mice; conditions: preliminary, data not shown
Experimental: Plasma collection method: Centrifuge plasma samples (EDTA tubes) at 2200×g (not RPM) for 15 minutes at room temperature. Observe separation of blood cells and plasma, with plasma layer on top. Draw off only the plasma layer and take care not to disturb buffy coat when aliquoting by leaving some plasma behind and avoiding the cell layer. Aliquot samples immediately into appropriately labeled tubes and then place them in a −80° C. freezer. […] [table]

[3] = system: IL-1β, IL-6, IL-10, TNF-α; assay: Luminex Mouse Inflammatory Panel in cortex after TBI; assay type: in vivo, C57BL/6J female mice
Experimental: Sacrifice Schedule: • a. Day 0—animals 1-5, all groups, 4h post TBI • b. Day 1—animals 6-10, all groups, 24 h post-TBI • c. Day 14—animals 11-20, all groups, 14d post TBI
Luminex Mouse Inflammatory Panel. FIG. 9A-FIG. 9C show pg/pg total protein of IL-1β (FIG. 9A), IL-6 (FIG. 9B) and IL-10 (FIG. 9C) expressed in the cortex in each study group from FIG. 8. […] While IL-10 is generally thought of as an anti-inflammatory cytokine, it also may promote fibrotic processes [Steen, E H et al. Adv. Wound Care (New Rochelle) (2020) 9 (4): 184-98, citing O'Garra, A. et al. Immunol. Rev. ([…]) 223: 114-31]. The data for the pre+post groups are consistent with the behavioral data.

weight drop model of TBI = assay: Beam-walk behavioral assay in the weight drop model of TBI; assay type: in vivo, C57BL/6J female mice
Excerpt: Test System. • Number of animals: 120 (100+20 extra for TBI deaths0 • Species/Strain or Breed: C57BL/6J • Vendor: Jackson Labs • Age/Wt at Arrival: 11 weeks at arrival • Gender: Female • Age/Wt at Study Initiation: 12 weeks • Acclimation: 7 days • Housing: 3-4 animals/cage
Study Design. Animals will arrive in the facility and will have access to food and water ad libitum. On study day 0, animals will be randomized based on bodyweight. Animals will be briefly anesthetized with isoflurane and subjected to traumatic brain injury (TBI) or sham injury as listed under Injury Induction. Animals will be weighed and undergo behavior testing (Beam Walking) and necropsied according to the Necropsy section.
They will then be placed individually in the prone position in a foam bed with their heads directly under a Plexiglas tube. A brass weight (80 g) will be dropped once through the tube from a specific height (0.8 m) and will strike the head directly creating a midline impact injury. Animals will be monitored for the presence of the forearm fencing response as a sign of moderate TBI. Animals will be placed in a clean cage on a heating pad for recovery, and righting reflex recovery times will be recorded for all animals. Sham animals will undergo all the same procedures but will not be subjected to TBI. Animals will be given 0.1 mg/kg SC buprenorphine directly after TBI to reduce acute pain associated with the injury and directly after sham procedures for the purpose of experimental matching. Animals will be checked daily, per the IACUC-approved post-operative monitoring plan.
Behavioral assay—Beam Walking (Luong, T N et al. Assessment of motor balance and coordination in mice using the balance beam.” J. Vis. Exp. (2011) 49: 2376) Fine motor coordination and balance can be assessed by the beam walking assay, which is a popular test for analyzing mice's gait in an environment that challenges their ability to balance themselves. The goal of this test is for the mouse to stay upright and walk across an elevated narrow beam to a safe platform. Performance on the beam is quantified by measuring the time it takes for the mouse to traverse the beam and the number of paw slips that occur in the process. This task is particularly useful for detecting subtle deficits in motor skills and balance that may not be detected by other motor tests, such as the Rotarod.
This test takes place over 3 consecutive days: 2 days of training and 1 day of testing. On training days, each mouse crosses the 12 mm beam 3 times and then the 6 mm beam 3 times. […] Mice are placed at one end of a beam and the time required to cross to the escape box at the other end (80 cm away) is measured by the motion detectors. […]
On the test day, times to cross each beam are recorded. […]

human HCA2 = human HCA2 (Homo sapiens, UniProt Q8TDS4); conditions: citing Taggart et al. 2005; read-out: EC50 for activation of human HCA2; cited from earlier work
Sequence of human HCA2 (Q8TDS4 whole entry): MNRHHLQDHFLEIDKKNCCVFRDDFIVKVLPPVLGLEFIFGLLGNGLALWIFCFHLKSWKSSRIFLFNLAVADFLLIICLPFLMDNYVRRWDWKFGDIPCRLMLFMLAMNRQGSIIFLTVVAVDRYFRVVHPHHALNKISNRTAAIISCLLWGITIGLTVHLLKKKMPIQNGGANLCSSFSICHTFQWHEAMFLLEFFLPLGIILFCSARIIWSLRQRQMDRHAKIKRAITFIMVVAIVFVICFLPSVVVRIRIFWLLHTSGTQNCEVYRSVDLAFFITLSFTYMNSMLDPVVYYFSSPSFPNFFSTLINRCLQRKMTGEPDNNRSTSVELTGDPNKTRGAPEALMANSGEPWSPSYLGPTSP

[4] = citing Newman and Verdin 2017; cited from earlier work

Row | SMILES | plasma levels relative to brain levels [1] | NfL plasma results [2] | IL-1β expression in cortex ([3]; 24 h and 14 day time points) | IL-6 expression in cortex ([3]; 24 h and 14 day time points) | IL-10 expression in cortex ([3]; 24 h and 14 day time points) | TNF-α results ([3]; data not shown) | improvement in foot faults (weight drop model of TBI; 2× pre+post group, 1 day after TBI, IN daily) [%] | foot faults after IN delivery after TBI (weight drop model of TBI; as soon as day 1 after injury, greatest decrease in post and 2× pre and post groups at day 3) | beam walking at day 3, all treated groups (weight drop model of TBI; day 3, best results in post and 2× pre+post groups) | beam walking, treated groups vs TBI vehicle (weight drop model of TBI; pre, post, pre+post and 2× pre+post groups, day 1 and day 3) | EC50 (human HCA2) [µM] | solubility in water and blood [4]
1 | C[C@@H](O)CCOC(=O)C[C@@H](C)O [BHB ester, R-3′-hydroxybutyl (R)-3′-hydroxybutyrate] | approximately ten fold | – | – | – | – | – | – | – | – | – | – | –
2 | C[C@@H](O)CC(=O)[O-].[Na+] [BHB salt, R-(−)-3-hydroxybutyric acid sodium salt] | approximately ten fold | not significant | decreased expression | decreased expression | decreased expression | not significant | 70 | decreased foot faults | significantly improved | showed improvement in beam walking | – | –
3 | CC(O)CC(=O)O (stereo not drawn) [BHB, beta-hydroxybutyrate] | – | – | – | – | – | – | – | – | – | – | ~700 | readily soluble in water and blood
